Columns and labels:
Assay type in all cases: cell-based
[1] = tested on: IL-6 cytokine output from THP-1s; assay: THP-1 AlphaLISA IL-6 cytokine assay (differentiated THP-1 cells, LPS then nigericin); details: Homo sapiens, 30 min pre-incubation, LPS 24 hr, nigericin 1 hour
Description: (§1) Measuring Inhibitory Effects on IL-1β and IL-6 Cytokine Output from THP-1s
(§2) The cytokine inhibition profiles of compounds of formula (I) were determined in a differentiated THP-1 cell assay. All assays were performed in RPMI-1640 growth medium (Gibco), supplemented with 10% fetal bovine serum (FBS; Gibco), 1% penicillin-streptomycin and 1% sodium pyruvate unless specified otherwise. The IL-1β and IL-6 cytokine inhibition assays were each run in a background of differentiated THP-1 cells as described below. All reagents described were from Sigma-Aldrich unless specified otherwise. Compounds were prepared as 10 mM DMSO stocks.
(§3) THP-1 cells were expanded as a suspension up to 80% confluence in appropriate growth medium. Cells were harvested, suspended, and treated with an appropriate concentration of phorbol 12-myristate 13-acetate (PMA) over a 72 hr period (37° C./5% CO2).
(§4) Following 72 hrs of THP-1 cell incubation, cellular medium was removed and replaced with fresh growth media containing 1% of FBS. Working concentrations of compounds were prepared separately in 10% FBS treated growth medium and pre-incubated with the cells for 30 minutes (37° C./5% CO2). Following the 30 minute compound pre-incubation, THP-1s were treated with an appropriate concentration of LPS and the THP-1s were subsequently incubated for a 24 hr period (37° C./5% CO2). An appropriate final concentration of Nigericin was then dispensed into the THP-1 plates and incubated for 1 hour (37° C./5% CO2) before THP-1 supernatants were harvested and collected in separate polypropylene 96-well holding plates.
(§5) Reagents from each of the IL-1β and IL-6 commercial kits (Perkin Elmer) were prepared and run according to the manufacturer's instructions. Subsequently, fluorescence signal detection in a microplate reader was measured (EnVision® Multilabel Reader, Perkin Elmer).
(§6) Percentage inhibition was calculated per cytokine by normalizing the sample data to the high and low controls used within each plate (+/−LPS respectively).

[2] = tested on: IL-1β cytokine output from THP-1s; assay: THP-1 AlphaLISA IL-1β cytokine assay (differentiated THP-1 cells, LPS then nigericin); details: Homo sapiens, 30 min pre-incubation, LPS 24 hr, nigericin 1 hour
Description: as §1, §2, §3, §4, §5, §6

[3] = tested on: NRF2 (nuclear factor erythroid 2-related factor 2); assay: NRF2 activation assay (DiscoverX PathHunter NRF2 translocation kit, U2OS cells); details: Homo sapiens; for Emax: U2OS, normalised to dimethyl fumarate high control; for EC50: U2OS PathHunter cells, 6 hours
[4] = +GSH (30 minute compound/GSH pre-incubation)

| Structure (SMILES) | IC50 [1] [µM] | IC50 [2] [µM] | Emax ([3]; +GSH) [%] | Emax ([3]; −GSH) [%] | EC50 [3, 4] [µM] | EC50 ([3]; −GSH) [µM] |
| --- | --- | --- | --- | --- | --- | --- |
| C=C(CC(=O)O[C@@H](C)c1ccc(C(F)(F)F)cc1)C(=O)NC [Example 10, (S)-1-(4-(trifluoromethyl)phenyl)ethyl 3-(methylcarbamoyl)but-3-enoate] | 3.5 | 10.5 | – | – | – | – |
| C=C(Cc1nc(C2(c3ccc(SC(F)(F)F)cc3)CC2)no1)C(=O)NC(C(=O)O)C(F)(F)F (centres unmarked) [Example 28, 3,3,3-trifluoro-2-(2-((3-(1-(4-((trifluoromethyl)thio)phenyl)cyclopropyl)-1,2,4-oxadiazol-5-yl)methyl)acrylamido)propanoic acid] | 16.2 | 7.9 | 34 | 67 | > 100 | 31.8 |
| C=C(CC(=O)O[C@H](C)c1ccc(C(F)(F)F)cc1)C(=O)NC [Example 11, (R)-1-(4-(trifluoromethyl)phenyl)ethyl 3-(methylcarbamoyl)but-3-enoate] | 1.9 | 3.3 | – | – | – | – |
| C=C(Cc1nc(Cc2ccc(CCCC)cc2)no1)C(=O)Nc1ccccn1 [Example 3, 2-((3-(4-butylbenzyl)-1,2,4-oxadiazol-5-yl)methyl)-N-(pyridin-2-yl)acrylamide] | – | 4.5 | – | – | – | – |
| C=C(Cc1nc(C2(c3ccc(SC(F)(F)F)cc3)CC2)no1)C(=O)Nc1ncc(C)s1 [Example 1, N-(5-methylthiazol-2-yl)-2-((3-(1-(4-((trifluoromethyl)thio)phenyl)cyclopropyl)-1,2,4-oxadiazol-5-yl)methyl)acrylamide] | 0.9 | 1 | – | – | – | – |
| C=C(Cc1nc(C2(c3ccc(SC(F)(F)F)cc3)CC2)no1)C(=O)NCC(=O)O [Example 27, (2-((3-(1-(4-((trifluoromethyl)thio)phenyl)cyclopropyl)-1,2,4-oxadiazol-5-yl)methyl)acryloyl)glycine] | > 100 | 9.5 | 20 | 26 | > 100 | > 100 |
| C=C(CC(=O)OC1(c2ccc(C(F)(F)F)cc2)CCC1)C(=O)NC1CCN(C)CC1 [Example 23, 1-(4-(trifluoromethyl)phenyl)cyclobutyl 3-((1-methylpiperidin-4-yl)carbamoyl)but-3-enoate] | 24.1 | > 31.6 | – | – | – | – |
| C=C(CC(=O)OC1(c2ccc(C(F)(F)F)cn2)CCC1)C(N)=O [Example 18, 1-(5-(trifluoromethyl)pyridin-2-yl)cyclobutyl 3-carbamoylbut-3-enoate] | 14.4 | 9.3 | – | – | – | – |
| C=C(Cc1nc(Cc2ccc(CCCC)cc2)no1)C(=O)Nc1ncc(C)s1 [Example 5, 2-((3-(4-butylbenzyl)-1,2,4-oxadiazol-5-yl)methyl)-N-(5-methylthiazol-2-yl)acrylamide] | – | 1.9 | – | – | – | – |
| C=C(CC(=O)OC1(c2ccc(C(F)(F)F)cc2)COC1)C(=O)NC [Example 13, 3-(4-(trifluoromethyl)phenyl)oxetan-3-yl 3-(methylcarbamoyl)but-3-enoate] | 2.6 | 17.5 | – | – | – | – |
| C=C(CC(=O)O[C@H](C)c1ccc(C(F)(F)F)cc1)C(N)=O [Example 12, (R)-1-(4-(trifluoromethyl)phenyl)ethyl 3-carbamoylbut-3-enoate] | 14.4 | 20 | – | – | – | – |
| C=C(CC(=O)OC1(c2ccc(C(F)(F)F)cc2)CCC1)C(=O)NCC(=O)O [Example 29, (2-methylene-4-oxo-4-(1-(4-(trifluoromethyl)phenyl)cyclobutoxy)butanoyl) glycine] | > 31.6 | > 100 | – | – | – | – |
| C=C(CC(=O)OC1(c2cc(Cl)cc(Cl)c2)CCC1)C(N)=O [Example 20, 1-(3,5-dichlorophenyl)cyclobutyl 3-carbamoylbut-3-enoate] | 8.3 | 13.2 | 28 | 156 | > 100 | 35.2 |
| C=C(CC(=O)OC1(c2ccc(C(F)(F)F)cc2)COC1)C(N)=O [Example 14, 3-(4-(trifluoromethyl)phenyl)oxetan-3-yl 3-carbamoylbut-3-enoate] | 4.4 | 6.5 | – | – | – | – |
| C=C(CC(=O)OC1(c2ccc(C(F)(F)F)cc2)CCC1)C(=O)NCCN1CCOCC1 [Example 24, 1-(4-(trifluoromethyl)phenyl)cyclobutyl 3-((2-morpholinoethyl)carbamoyl)but-3-enoate] | 6.8 | 8.6 | – | – | – | – |
| C=C(CC(=O)OC1(c2ccc(C(F)(F)F)cc2)CCC1)C(=O)NCCS(C)(=O)=O [Example 26, 1-(4-(trifluoromethyl)phenyl)cyclobutyl 3-((2-(methylsulfonyl)ethyl)carbamoyl)but-3-enoate] | 11.3 | 18 | – | – | – | – |
| C=C(Cc1nc(C2(c3ccc(SC(F)(F)F)cc3)CC2)no1)C(=O)Nc1cnccn1 [Example 2, N-(pyrazin-2-yl)-2-((3-(1-(4-((trifluoromethyl)thio)phenyl)cyclopropyl)-1,2,4-oxadiazol-5-yl)methyl)acrylamide] | 0.6 | 0.4 | 79 | 117 | 5.2 | 0.9 |
| C=C(CC(=O)OC1(c2ccc(C(F)(F)F)cc2)CCC1)C(=O)NC1CS(=O)(=O)C1 [Example 25, 1-(4-(trifluoromethyl)phenyl)cyclobutyl 3-((1,1-dioxidothietan-3-yl)carbamoyl)but-3-enoate] | 9.5 | 19.9 | – | – | – | – |
| C=C(CC(=O)OC1(c2ccc(C(F)(F)F)cc2)CCC1)C(N)=O [Example 8, 1-(4-(trifluoromethyl)phenyl)cyclobutyl 3-carbamoylbut-3-enoate] | 13.9 | 34.3 | 7 | 21 | > 100 | > 100 |
| C=C(CC(=O)O[C@@H](C)c1ccc(C(F)(F)F)cc1)C(N)=O [Example 9, (S)-1-(4-(trifluoromethyl)phenyl)ethyl 3-carbamoylbut-3-enoate] | 4.5 | 10 | 26 | 110 | > 100 | 13.7 |
| C=C(CC(=O)OC1(c2ccc(C(F)(F)F)c(F)c2)CCC1)C(N)=O [Example 21, 1-(3-fluoro-4-(trifluoromethyl)phenyl)cyclobutyl 3-carbamoylbut-3-enoate] | 6.9 | 15.4 | – | – | – | – |
| C=C(Cc1ccccc1Cl)C(=O)O [2-(2-chlorobenzyl)acrylic acid, reference compound] | – | > 100 | 9 | 2 | > 100 | > 100 |
| C=C(CC(=O)OC1(c2ccc(C(F)(F)F)cn2)COC1)C(N)=O [Example 16, 3-(5-(trifluoromethyl)pyridin-2-yl)oxetan-3-yl 3-carbamoylbut-3-enoate] | 4.6 | 8.6 | – | – | – | – |
| C=C(CC(=O)OC)C(=O)OC [dimethyl itaconate, reference compound] | > 100 | > 100 | – | 126 | – | – |
| C=C(CC(=O)OC1(c2ccc(C(F)(F)F)cc2)CCC1)C(=O)NC [Example 7, 1-(4-(trifluoromethyl)phenyl)cyclobutyl 3-(methylcarbamoyl)but-3-enoate] | 12.1 | 20.5 | 27 | 119 | > 100 | 12.6 |
| C=C(Cc1nc(Cc2ccc(CCCC)cc2)no1)C(=O)Nc1cnccn1 [Example 4, 2-((3-(4-butylbenzyl)-1,2,4-oxadiazol-5-yl)methyl)-N-(pyrazin-2-yl)acrylamide] | – | 1.1 | – | – | – | – |
| C=C(CC(=O)OC1(c2cc(Cl)cc(Cl)c2)CCC1)C(=O)NC [Example 19, 1-(3,5-dichlorophenyl)cyclobutyl 3-(methylcarbamoyl)but-3-enoate] | 3.3 | 17.5 | – | – | – | – |
| C=C(CC(=O)OC(C)(C)CCCCCC)C(=O)Nc1cnccn1 [Example 6, 2-methyloctan-2-yl 3-(pyrazin-2-ylcarbamoyl)but-3-enoate] | 2.1 | 3.8 | – | – | – | – |
| C=C(CC(=O)OC1(c2ccc(C(F)(F)F)cn2)CCC1)C(=O)NC [Example 17, 1-(5-(trifluoromethyl)pyridin-2-yl)cyclobutyl 3-(methylcarbamoyl)but-3-enoate] | 4.8 | 14.4 | – | – | – | – |
| C=C(CC(=O)OC1(c2ccc(C(F)(F)F)cn2)COC1)C(=O)NC [Example 15, 3-(5-(trifluoromethyl)pyridin-2-yl)oxetan-3-yl 3-(methylcarbamoyl)but-3-enoate] | 10.9 | 13.1 | – | – | – | – |

— patent US20240335451A1, “ACRYLAMIDE DERIVATIVES USEFUL AS ANTI-INFLAMMATORY AGENTS” (Sitryx Therapeutics Limited, priority 2021, published 2024)
